Results from patent EP0566020A1, “Benzimidazoles, pharmaceutical compositions thereof and processes for their preparation” (Dr. Karl Thomae GmbH, priority 1992, dated 1993).

Target: T1, Angiotensin II-Rezeptor (Rattus norvegicus, UniProt P25095)
T1 construct: Das Gewebe (Rattenlunge) wird in Tris-Puffer; from tissue; host or cells: rat lung homogenate (membrane pellet, 20,000 x g)
T1 sequence (P25095 1-359): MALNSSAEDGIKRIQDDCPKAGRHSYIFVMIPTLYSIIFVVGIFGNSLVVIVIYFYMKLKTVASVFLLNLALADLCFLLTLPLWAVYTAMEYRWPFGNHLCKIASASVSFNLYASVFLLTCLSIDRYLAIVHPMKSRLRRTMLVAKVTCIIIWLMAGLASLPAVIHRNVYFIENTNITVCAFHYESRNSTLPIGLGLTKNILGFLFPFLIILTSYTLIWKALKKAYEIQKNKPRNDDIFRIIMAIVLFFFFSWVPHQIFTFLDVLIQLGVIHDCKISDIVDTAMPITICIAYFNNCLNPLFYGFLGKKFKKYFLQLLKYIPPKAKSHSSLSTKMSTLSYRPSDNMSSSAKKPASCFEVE
Assay: Angiotensin II receptor binding ([125I]-angiotensin II displacement, rat lung homogenate)
Set-up: species or system Ratte
Details: Rattenlunge homogenate, 50 pM [¹²⁵I]-Angiotensin II, 60 Min. bei 37°C; read-out: IC₅₀
Protocol: Methodenbeschreibung Angiotensin II-Rezeptorbindung
Das Gewebe (Rattenlunge) wird in Tris-Puffer (50 mMol Tris, 150 mMol NaCl, 5 mMol EDTA, pH 7.40) homogenisiert und zweimal je 20 Min. bei 20.000 x g zentrifugiert. Das endgültige Pellet wird in Inkubations-Puffer (50 mMol Tris, 5 mMol MgCl₂, 0,2 % BSA, pH 7,40) 1:75, bezogen auf das Feuchtgewicht des Gewebes, resuspendiert. Je 0,1 ml Homogenat wird für 60 Min. bei 37°C mit 50 pM [¹²⁵I]-Angiotensin II (NEN, Dreieich, FRG) und steigenden Konzentrationen der Testsubstanz in einem Gesamtvolumen von 0,25 ml inkubiert. Die Inkubation wird durch rasche Filtration durch Glasfiber-Filtermatten beendet. Die Filter werden je 4 ml eiskaltem Puffer (25 mMol Tris, 2.5 mMol MgCl₂, 0,1 % BSA, pH 7,40) gewaschen. Die gebundene Radioaktivität wird in einem Gamma-Counter ermittelt. Aus der Dosis-Wirkungskurve wird der entsprechende IC₅₀-Wert ermittelt.

IC50 [nM]	SMILES
38	CCCc1nc2c(C)cc(-c3nc4c(n3CC(=O)O)CCCC4)cc2n1Cc1ccc(-c2ccccc2C(=O)O)cc1 [Substanz F, 4'-[[2-n-Propyl-4-methyl-6-(1-carboxymethyl-5,6,7,8-tetrahydrobenzimidazol-2-yl)-1H-benzimidazol-1-yl]-methyl]-biphenyl-2-carbonsäure-semihydrat]
46	CCc1nc2c(C)cc(-c3nc4c(n3-c3ccccc3)CCCC4)cc2n1Cc1ccc(-c2ccccc2C(=O)O)cc1 [Substanz E, 4'-[[2-Ethyl-4-methyl-6-(1-phenyl-5,6,7,8-tetrahydrobenzimidazol-2-yl)-1H-benzimidazol-1-yl]-methyl]-biphenyl-2-carbonsäure-hydrat]
12	CCCc1nc2c(C)cc(-c3nc4c([nH]3)CCCC4)cc2n1Cc1ccc(-c2ccccc2C(=O)O)cc1 [Substanz A, 4'-[[2-n-Propyl-4-methyl-6-(5,6,7,8-tetrahydrobenzimidazol-2-yl)-1H-benzimidazol-1-yl]-methyl]-biphenyl-2-carbonsäure]
37	CCCc1nc2c(C)cc(C3=NC(C)(C)CO3)cc2n1Cc1ccc(-c2ccccc2C(=O)O)cc1 [Substanz H, 4'-[[2-n-Propyl-4-methyl-6-(4,4-dimethyl-oxazolin-2-yl)-1H-benzimidazol-1-yl]-methyl]-biphenyl-2-carbonsäure-di-trifluoracetat]
2.6	CCCc1nc2c(C)cc(-c3nc4c(n3C)CCCC4)cc2n1Cc1ccc(-c2ccccc2-c2nnn[nH]2)cc1 [Substanz C, 4'-[[2-n-Propyl-4-methyl-6-(1-methyl-5,6,7,8-tetrahydrobenzimidazol-2-yl)-1H-benzimidazol-1-yl]-methyl]-2-(1H-tetrazol-5-yl)biphenyl]
3.2	CCCc1nc2c(C)cc(-c3nc(-c4ccccc4)c(C)n3C)cc2n1Cc1ccc(-c2ccccc2C(=O)O)cc1 [Substanz I, 4'-[[2-n-Propyl-4-methyl-6-(1,5-dimethyl-4-phenyl-imidazol-2-yl)-1H-benzimidazol-1-yl]-methyl]-biphenyl-2-carbonsäure-hydrat]
3.8	CCCc1nc2c(C)cc(-c3nc4c(n3C)CCCC4)cc2n1Cc1ccc(-c2ccccc2C(=O)O)cc1 [Substanz B, 4'-[[2-n-Propyl-4-methyl-6-(1-methyl-5,6,7,8-tetrahydrobenzimidazol-2-yl)-1H-benzimidazol-1-yl]-methyl]-biphenyl-2-carbonsäure]
19.5	CCCc1nc2c(C)cc(-c3nc(C(C)C)c(C)n3C)cc2n1Cc1ccc(-c2ccccc2C(=O)O)cc1 [Substanz K, 4'-[[2-n-Propyl-4-methyl-6-(4-isopropyl-1,5-dimethyl-imidazol-2-yl)-1H-benzimidazol-1-yl]-methyl]-biphenyl-2-carbonsäure x 1,25 Wasser]
6	CCCc1nc2c(C)cc(-c3nc4c(n3Cc3ccccc3)CCCC4)cc2n1Cc1ccc(-c2ccccc2C(=O)O)cc1 [Substanz D, 4'-[[2-n-Propyl-4-methyl-6-(1-benzyl-5,6,7,8-tetrahydrobenzimidazol-2-yl)-1H-benzimidazol-1-yl]-methyl]-biphenyl-2-carbonsäure]
1.6	CCc1nc2c(C)cc(-c3nc4c(n3CC)CCCC4)cc2n1Cc1ccc(-c2ccccc2-c2nnn[nH]2)cc1 [Substanz G, 4'-[[2-Ethyl-4-methyl-6-(1-ethyl-5,6,7,8-tetrahydro-benzimidazol-2-yl)-1H-benzimidazol-1-yl]-methyl]-2-(1H-tetrazol-5-yl)-biphenyl-hydrat]
